Test results taken from ChEMBL document CHEMBL1201862, “PubChem BioAssay data set” (2004).
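Dose response: 5 concentrations. Exposure: 48 h. Format: 96-well plates. Endpoint: linear interpolation; highest concentration if not reached. Abbreviation: GI50, concentration required for 50% inhibition of growth.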 The source made the active and inactive calls. Rule as the data show it: active = GI50 up to about 1.1 µM and inactive = higher.

What was measured:
Test in all cases: NCI tumour cell line growth inhibition, 48 h
[1] = test system: Hs-578T
[2] = test system: IGROV-1
[3] = test system: SF-539
[4] = test system: SK-MEL-5
[5] = test system: MDA-MB-231
[6] = test system: DU-145
[7] = test system: OVCAR-5
[8] = test system: KM12
[9] = test system: HOP-62
[10] = test system: EKVX
[11] = test system: BT-549
[12] = test system: OVCAR-4
[13] = test system: A498
[14] = test system: CCRF-CEM
[15] = test system: ACHN
[16] = test system: COLO 205
[17] = test system: SF-295
[18] = test system: M14
[19] = test system: OVCAR-3
[20] = test system: NCI-H23

SMILES	GI50 [1]	GI50 [2]	GI50 [3]	GI50 [4]	GI50 [5]	GI50 [6]	GI50 [7]	GI50 [8]	GI50 [9]	GI50 [10]	GI50 [11]	GI50 [12]	GI50 [13]	GI50 [14]	GI50 [15]	GI50 [16]	GI50 [17]	GI50 [18]	GI50 [19]	GI50 [20]
CN(C)c1ccc(/C=C/c2ccnc3ccccc23)cc1	14.5 µM (inactive)	> 100 µM (inactive)	> 100 µM (inactive)	75.9 µM (inactive)	23.3 µM (inactive)	47.9 µM (inactive)	> 100 µM (inactive)	55.8 µM (inactive)	> 100 µM (inactive)	49 µM (inactive)	18.2 µM (inactive)	55.6 µM (inactive)	> 100 µM (inactive)	49.5 µM (inactive)	40.3 µM (inactive)	28.8 µM (inactive)	54.7 µM (inactive)	65.8 µM (inactive)	> 100 µM (inactive)	39.4 µM (inactive)
Cc1cc(C)nc(NS(=O)(=O)c2ccc(Nc3c4ccccc4nc4ccc(C(=O)Nc5ccc(S(=O)(=O)N=C(N)N)cc5)cc34)cc2)n1	> 100 µM (inactive)	> 100 µM (inactive)	> 100 µM (inactive)	97.3 µM (inactive)	81.8 µM (inactive)	> 100 µM (inactive)	> 100 µM (inactive)	> 100 µM (inactive)	> 100 µM (inactive)	> 100 µM (inactive)	30.5 µM (inactive)	55.3 µM (inactive)	> 100 µM (inactive)	31 µM (inactive)	> 100 µM (inactive)	> 100 µM (inactive)	> 100 µM (inactive)	> 100 µM (inactive)	43.4 µM (inactive)	> 100 µM (inactive)
O=[N+]([O-])c1ccc([I+]c2ccccc2)cc1	3.85 µM (inactive)	16.4 µM (inactive)	7.11 µM (inactive)	8.04 µM (inactive)	3.95 µM (inactive)	8.93 µM (inactive)	7.98 µM (inactive)	5.04 µM (inactive)	11.6 µM (inactive)	15.7 µM (inactive)	2.8 µM (inactive)	4.33 µM (inactive)	2.05 µM (inactive)	2.49 µM (inactive)	6.43 µM (inactive)	3.11 µM (inactive)	1.27 µM (inactive)	4.29 µM (inactive)	3.13 µM (inactive)	2.33 µM (inactive)
N#CN1C2CCC1CC(=O)C2	> 100 µM (inactive)	> 100 µM (inactive)	> 100 µM (inactive)	> 100 µM (inactive)	> 100 µM (inactive)	> 100 µM (inactive)	> 100 µM (inactive)	> 100 µM (inactive)	> 100 µM (inactive)	> 100 µM (inactive)	> 100 µM (inactive)	> 100 µM (inactive)	> 100 µM (inactive)	> 100 µM (inactive)	> 100 µM (inactive)	> 100 µM (inactive)	> 100 µM (inactive)	> 100 µM (inactive)	> 100 µM (inactive)	> 100 µM (inactive)
CN(C)CCC(=O)N1C/C(=C\c2ccc(Cl)c(Cl)c2)C(=O)/C(=C/c2ccc(Cl)c(Cl)c2)C1	0.257 µM (active)	0.434 µM (active)	0.274 µM (active)	0.453 µM (active)	0.127 µM (active)	0.224 µM (active)	0.731 µM (active)	0.279 µM (active)	0.303 µM (active)	0.565 µM (active)	0.426 µM (active)	0.245 µM (active)	1.32 µM (inactive)	0.0269 µM (active)	0.329 µM (active)	0.223 µM (active)	0.274 µM (active)	0.291 µM (active)	0.448 µM (active)	0.504 µM (active)
CC1=C(C)C(=O)O[C@@H]([C@](C)(O)[C@]2(O)CC[C@@]3(O)[C@@H]4C[C@H](O)[C@]5(O)[C@@H](O)C=CC(=O)[C@]5(C)[C@H]4CC[C@]23C)C1	> 100 µM (inactive)	> 100 µM (inactive)	> 100 µM (inactive)	> 100 µM (inactive)	> 100 µM (inactive)	> 100 µM (inactive)	> 100 µM (inactive)	> 100 µM (inactive)	> 100 µM (inactive)	> 100 µM (inactive)	> 100 µM (inactive)	> 100 µM (inactive)	> 100 µM (inactive)	28.4 µM (inactive)	> 100 µM (inactive)	> 100 µM (inactive)	> 100 µM (inactive)	> 100 µM (inactive)	> 100 µM (inactive)	> 100 µM (inactive)
CCN(CC)CCCNc1nncc2c(C)c3[nH]c4ccc(OC)cc4c3cc12	0.482 µM (active)	0.356 µM (active)	0.268 µM (active)	0.935 µM (active)	0.716 µM (active)	0.622 µM (active)	1.25 µM (inactive)	0.592 µM (active)	0.525 µM (active)	2.11 µM (inactive)	1.54 µM (inactive)	0.618 µM (active)	1.75 µM (inactive)	0.0535 µM (active)	1.08 µM (active)	1.03 µM (active)	1.55 µM (inactive)	1.61 µM (inactive)	0.604 µM (active)	0.421 µM (active)
COc1ccc([N+](=O)[O-])c2c(NCCCN(C)C)c3ccccc3nc12	0.682 µM (active)	0.05 µM (active)	0.308 µM (active)	0.106 µM (active)	0.466 µM (active)	0.126 µM (active)	0.272 µM (active)	0.0991 µM (active)	0.0998 µM (active)	0.107 µM (active)	0.701 µM (active)	0.0354 µM (active)	0.0204 µM (active)	0.546 µM (active)	0.13 µM (active)	0.0953 µM (active)	0.107 µM (active)	0.183 µM (active)	0.125 µM (active)	0.0625 µM (active)
O=C1Oc2ccccc2C(=O)/C1=C/N1C(=O)/C(=C/c2ccc([N+](=O)[O-])cc2)SC1=S	6.59 µM (inactive)	32.3 µM (inactive)	21.8 µM (inactive)	19.7 µM (inactive)	24.9 µM (inactive)	25.7 µM (inactive)	34.4 µM (inactive)	19 µM (inactive)	18.2 µM (inactive)	54.1 µM (inactive)	7.16 µM (inactive)	20.8 µM (inactive)	7.91 µM (inactive)	34 µM (inactive)	15.6 µM (inactive)	20.5 µM (inactive)	17.7 µM (inactive)	22.8 µM (inactive)	2.71 µM (inactive)	14 µM (inactive)
Cc1c(Cl)c(C)c(Cl)c(O)c1Cl	19.9 µM (inactive)	44.3 µM (inactive)	29 µM (inactive)	15.3 µM (inactive)	27 µM (inactive)	37 µM (inactive)	35.2 µM (inactive)	26.3 µM (inactive)	31.9 µM (inactive)	26.4 µM (inactive)	24.3 µM (inactive)	26 µM (inactive)	19 µM (inactive)	33.7 µM (inactive)	22.8 µM (inactive)	60 µM (inactive)	24.8 µM (inactive)	20.5 µM (inactive)	19.5 µM (inactive)	28.1 µM (inactive)
COc1ccc2c(c1)CC[C@@H]1C2CC[C@]2(C)OC(=O)CCC12 (stereo not given in full)	14.4 µM (inactive)	23.6 µM (inactive)	15.2 µM (inactive)	12.6 µM (inactive)	2.45 µM (inactive)	43.6 µM (inactive)	13.3 µM (inactive)	32.2 µM (inactive)	25 µM (inactive)	7.73 µM (inactive)	11.4 µM (inactive)	6.12 µM (inactive)	38.6 µM (inactive)	3.6 µM (inactive)	50.8 µM (inactive)	40.3 µM (inactive)	18.3 µM (inactive)	13.2 µM (inactive)	11.6 µM (inactive)	12.6 µM (inactive)
CC(=O)OCC1=C2C(OC(=O)C(C)C)CC3(COC(C)=O)OC3/C=C\C3(C)OC3C2OC1=O (stereo not given)	> 100 µM (inactive)	> 100 µM (inactive)	> 100 µM (inactive)	> 100 µM (inactive)	> 100 µM (inactive)	> 100 µM (inactive)	> 100 µM (inactive)	> 100 µM (inactive)	> 100 µM (inactive)	> 100 µM (inactive)	> 100 µM (inactive)	> 100 µM (inactive)	> 100 µM (inactive)	50.5 µM (inactive)	> 100 µM (inactive)	> 100 µM (inactive)	> 100 µM (inactive)	> 100 µM (inactive)	> 100 µM (inactive)	> 100 µM (inactive)
Oc1nc(S)nc(SCc2c(Cl)c(Cl)c(Cl)c(Cl)c2Cl)n1	> 59.2 µM (inactive)	69 µM (inactive)	46.2 µM (inactive)	> 84.1 µM (inactive)	> 100 µM (inactive)	45.9 µM (inactive)	98.2 µM (inactive)	89.9 µM (inactive)	38.7 µM (inactive)	40.9 µM (inactive)	> 80.2 µM (inactive)	21.9 µM (inactive)	> 59.4 µM (inactive)	15.8 µM (inactive)	77.1 µM (inactive)	18.2 µM (inactive)	> 100 µM (inactive)	60.8 µM (inactive)	15.3 µM (inactive)	55.7 µM (inactive)
CC(=O)OC(C)(C)/C=C/C(=O)[C@](C)(O)[C@H]1[C@H](O)C[C@@]2(C)[C@@H]3CC=C4[C@@H](C[C@H](O)C(=O)C4(C)C)[C@]3(C)C(=O)C[C@]12C	< 0.01 µM (active)	< 0.01 µM (active)	< 0.01 µM (active)	< 0.01 µM (active)	< 0.01 µM (active)	< 0.01 µM (active)	< 0.0246 µM (active)	1.4 µM (inactive)	< 0.0111 µM (active)	0.0102 µM (active)	< 0.01 µM (active)	< 0.01 µM (active)	< 0.01 µM (active)	< 0.01 µM (active)	< 0.01 µM (active)	< 0.01 µM (active)	< 0.01 µM (active)	< 0.01 µM (active)	< 0.01 µM (active)	0.0873 µM (active)
